From patent US20020169101A1, “Treatment of sexual dysfunction” (priority 1999, published 2002) come the findings set out here.

In assay [1] the test system is female rat sexual proceptivity (NMB-inhibited). Description: Inhibition of female rat proceptivity by i.c.v. NMB and its antagonism. Type of assay: in vivo. The note with it: progesterone 0.5 mg s.c. 4 h; NMB 100 ng i.c.v. 10 min before test in progesterone-treated rats; Compound (1) 15 mg/kg i.p. 1 h before NMB (FIG. 5). How it is done:
Ovariectomised female rats (Sprague Dawley, obtained from Charles River, UK) were stereotaxically implanted (coordinates 0.89 mm behind Bregma, 1.3 mm lateral and 2.5 mm vertical) with stainless steel cannulae (6 mm long, O.D. 0.75 mm), held in place with dental cement. Animals were housed in groups of three and returned to a reversed lighting system of 12 h light:dark (lights off 5.00-17.00 h). Correct placement of the cannulae was assessed post-mortem. Rats were used for tests two weeks after ovariectomy (one week after cannulation). The experiments started at least 5 h into the dark period. Forty eight hours before tests, the animals were primed with 5 μg oestradiol benzoate (OB) (s.c, in corn oil) and adapted to the apparatus (in the absence of stimuli animals) for 10 min on 2 consecutive days prior testing. The 10 min test was carried out as previously described. The difference in the percentage of time spent investigating male minus female was calculated, out of the total time spent investigating stimuli.
Progesterone (Prog, 0.5 mg/0.1 ml) was dissolved in corn oil and administered subcutaneously (s.c.), 4 h before test, to induce proceptive behaviour. Compound (1) (15 mg/kg, i.p.) was dissolved in 50% 2-hydroxypropyl-β-cyclodextrin in saline and administered 1 h before the i.c.v. administration. Neuromedin B was obtained from Bachem, UK. It was dissolved in isotonic saline and administered i.c.v. over a 30 sec period, with the aid of a pump set to deliver a flow of 10 μl/min, 10 min before tests. The dosing volume was 5 μl/rat. Each rat received a total amount of 100 ng.

For assay [2], the system named is penile intracavernosal pressure. Description: Pelvic nerve-stimulated penile intracavernosal pressure in the anaesthetised rabbit model of erection. The assay is classed as in vivo. The note with it: Compound 3 (10 mg/kg sc) concomitant with a selective PDE5 inhibitor (1 mg/kg iv), vs Compound 3 alone, anaesthetised rabbit (FIG. 26). How it is done:
Male New Zealand rabbits (˜2.5kg) were pre-medicated with a combination of Medetomidine (Domitor®) 0.5 ml/kg i.m., and Ketamine (Vetalar®)) 0.25 ml/kg i.m. whilst maintaining oxygen intake via a face mask. The rabbits were tracheotomised using a PorteXTM uncuffed endotracheal tube 3 ID., connected to ventilator and maintained at a ventilation rate of 30-40 breaths per minute, with an approximate tidal volume of 18-20 ml, and a maximum airway pressure of 10 cm H2O. Anaesthesia was then switched to Isoflurane and ventilation continued with O2 at 21/min. The right marginal ear vein was cannulated using a 23G or 24G catheter, and Lactated Ringer solution perfused at 0.5 ml/min. The rabbit was maintained at 3% Isoflurane during invasive surgery, dropping to 2% for maintenance anaesthesia. The left jugular vein was exposed, isolated and then cannulated with a PVC catheter (17G) for the infusion of drugs and compounds.
The left groin area of the rabbit was shaved and a vertical incision was made approximately 5 cm in length along the thigh. […] Systolic and diastolic pressures were measured, and the mean arterial pressure calculated using the formula (diastolic x2+systolic)÷3. Heart rate was measured via the pulse oxymeter and Po-ne-mah data acquisition software system (Ponemah Physiology Platform, Gould Instrument Systems Inc). […]

For `COc1ccc(C2(CNC(=O)[C@](C)(Cc3c[nH]c4ccccc34)NC(=O)Nc3ccc([N+](=O)[O-])cc3)CCCCC2)nc1` [Compound (1), (S) 3-(1H-Indol-3-yl)-N-[1-(5-methoxy-pyridin-2-yl)-cyclohexyl-methyl]-2-methyl-2-[3-(4-nitro-phenyl)-ureido]-propionamide], in assay [1], the “proceptivity (percentage of time investigating male minus female stimulus)” value is given as “prevented the inhibitory effect of NMB”.

Turning to `C[C@@](Cc1c[nH]c2ccccc12)(NC(=O)Nc1ccc([N+](=O)[O-])cc1)C(=O)NCC1(c2ccc(N)cc2)CCCCC1` [Compound 3, (2S)-N-{[1-(4-aminophenyl)cyclohexyl]methyl}-3-(1H-indol-3-yl)-2-methyl-2-{[(4-nitroanilino)-carbonyl]amino}propanamide], the results for the “pelvic nerve-stimulated intracavernosal pressure (ICP)” value in assay [2] and in assay [2] (listed as compound 3) were “marked enhancement of the ICP” and “marked enhancement of intracavernosal pressure”, respectively.
